The source of these data is paper PMC6956158, “In Vitro and In Vivo Assessment of Metabolic Drug Interaction Potential of Dutasteride with Ketoconazole” (Pharmaceutics, 2019).

The structures appear in SMILES notation. Where two headings read alike, the source gives them in different places.

Usually Tmax stands for the time from dosing to the highest level. A word on the AUC(0-t): it is the area under the concentration-time curve up to a stated or last time point. High values mean high exposure, low ones low exposure. A word on the Cmax: it is the highest concentration seen after dosing. In general, fraction unbound refers to free concentration divided by total concentration. High values mean much free substance, low ones little free substance.

Data set [1] in a line: In vivo pharmacokinetic study in rats, oral DUT without or with KET. More on the design: species or system rat. Particulars: for AUC(0-t) / Cmax: po, 5 mg/kg. The text has this: The animal experiment protocols used in the present study were approved by the Pusan National University-Institutional Animal Care and Use Committee for scientific care and ethical procedures (Busan, Korea; approval date: 01/05/2018; approval number: PNU-2018-1848). Male Sprague–Dawley rats (8-week-old; approximately 250 g) were purchased from DBL Co., Ltd. (Incheon, Korea). The rats were acclimatized in a clean room of the Laboratory Animal Center of Pusan National University (Busan, Korea) for 1 week. Then, they were fasted for 12 h prior to the pharmacokinetic experiment and then anesthetized by intramuscular injection of Zoletil at a dose of 20 mg/kg. The femoral vein and artery of the rats were cannulated with a polyethylene tube (BD Medical; Franklin Lakes, NJ, USA). At approximately 4–6 h after the surgery for cannulation, an intravenous dose of DUT (2.5 mg/kg) simultaneously with or without intravenous KET ([…]) was administered to the rats. Drugs were dissolved in a vehicle consisting of dimethyl sulfoxide, ethanol, and polyethylene glycol 400 at a ratio of 10:5:85 (v/v/v). Blood (approximately 200 μL) was collected in heparin pre-treated microcentrifuge tubes via the femoral artery at 0, 1, 5, 15, 30, 60, 120, 180, 240, 360, 480, and 1200 min after the intravenous dose and at 0, 5, 15, 30, 60, 120, 150, 180, 240, 360, 480, and 1200 min after the oral dose. Following centrifugation of the blood samples at 3000× g at 4 °C for 10 min [19], 100 μL aliquots of plasma were stored at −80 °C.
The half maximal inhibitory concentration (IC50) of KET for the inhibition of the DUT metabolism was determined by the nonlinear regression analysis (GraphPad Prism ver. 5.01; GraphPad Software Inc., San Diego, CA, USA) based on the following Hill equation: y = Min + Max−Min/1 + (x/IC50)^-P where Max and Min are the initial and final y value, respectively, and the exponent P represents the Hill coefficient. Peak plasma concentration (Cmax) and time to reach Cmax (Tmax) were read directly from the observed data. Non-compartmental analysis was conducted to estimate pharmacokinetic parameters such as total area under plasma concentration versus time curve from time zero to time of last sampling (AUClast), total area under plasma concentration versus time curve from time zero to infinity (AUCinf), total plasma clearance (CL), volume of distribution at steady state (Vss), and terminal half-life (t1/2) using the NCA200 and 201 models of WinNonlin ver. 3.1 (Certara USA Inc., Princeton, NJ, USA).

A further data set concerns type-1 5AR. More on the design: method as in PMID 16964191, PMID 16719800. The settings on record: previous in vitro studies; cited from earlier work.
A short description of data set [2]: Previous and preliminary rat studies of intravenous DUT. Type of data set: in vivo. Particulars: rats, preliminary study.
In a further data set the test system is type-2 5AR. More on the design: method as in PMID 16964191, PMID 16719800. Particulars: previous in vitro studies; cited from earlier work.
Data set [3] can be described thus: Unbound fraction by rapid equilibrium dialysis, human plasma. It is filed as in vitro ADME. On the procedure:
(§1) To investigate the metabolic interaction potential between DUT and KET, the disappearance of DUT (5 μM) in RLM and HLM was determined under the absence and presence of KET at various concentrations ranging from 1 to 5000 nM. A microsomal reaction mixture was prepared as follows (total volume: 0.2 mL): 1 mM NADPH, 10 mM MgCl2, substrate (DUT), and inhibitor (KET), RLM or HLM (1 mg/mL), and 50 mM phosphate buffer. At 0 and 90 min after starting the metabolic reaction, a 50 μL aliquot of microsomal incubation mixture was sampled and immediately transferred into a clean 1.5 mL microcentrifuge tube containing 100 μL cold ACN with an internal standard (celecoxib at 400 ng/mL) to stop the metabolic reaction. After vortex mixing and centrifugation at 15,000× g for 10 min, a 100 μL aliquot of the supernatant was stored at −80 °C. The unbound fractions of DUT in rat plasma, RLM, human plasma, and HLM were measured using a rapid equilibrium dialysis (RED) device (Thermo Fisher Scientific, Inc., Waltham, MA, USA) as described in a previous study. […] The fraction unbound was calculated as the ratio of the drug concentrations in the “buffer” chamber to those in the “sample” chamber. The blood-to-plasma concentration ratio (RB) of DUT was determined as described previously. […] The concentrations of DUT in the plasma sample were determined by the validated HPLC analysis.

A short description of data set [4]: Unbound fraction by rapid equilibrium dialysis, RLM. Type of data set: in vitro ADME, rat. On the procedure:
as §1
(In equilibrium dialysis free small molecules cross a membrane that holds back macromolecules.)

[5] abbreviates: male, Sprague-Dawley, rat, plasma, oral DUT 5 mg/kg with oral KET (20 mg/kg), n = 4.
Setting [6] is: male, Sprague-Dawley, rat, plasma, oral DUT 5 mg/kg, DUT alone, n = 4.

In data set [1] (male, Sprague-Dawley, rat, plasma sample collected at 30 min after oral DUT 5 mg/kg, representative chromatogram), `C[C@]12C=CC(=O)N[C@@H]1CC[C@@H]1[C@@H]2CC[C@]2(C)[C@@H](C(=O)Nc3cc(C(F)(F)F)ccc3C(F)(F)F)CC[C@@H]12` [DUT, Dutasteride] registered a concentration at 30 min of 276 ng/mL. The Tmax in data set [1] (male, Sprague-Dawley, rat, plasma, oral DUT 5 mg/kg, DUT alone, median (range), n = 4, read-out: Tmax (converted)) is 1 h; in data set [1] (oral DUT 5 mg/kg with oral KET (20 mg/kg), median, n = 4) it was 1 h. For the same molecule, the results for the AUC(0-t) in data set [1] (setting [5]) and in data set [1] (setting [6]) were 6470 ng·h/mL and 4580 ng·h/mL, respectively. The figures for the Cmax in data set [1] (setting [5]) and in data set [1] (setting [6]) were 419 ± 27 ng/mL and 289 ± 10 ng/mL, respectively. The “more potent inhibition of type-1 5AR compared to finasteride” value in the data set on type-1 5AR is reported as 45 fold. The “renal excretion of DUT in the unchanged form” value in data set [2] is listed as “less than 1 % of intravenously administered dose”. In addition, the “more potent inhibition of type-2 5AR compared to finasteride” value with type-2 5AR is given as 2.5 fold. Also, the fraction unbound at 5 μM in data set [3] (DUT 5 μM, RED device) came to 0.0078; in data set [4] (Sprague-Dawley, rat, rat liver microsomes, RLM 1 mg/mL, DUT 5 μM, RED device), 0.0856. In addition, the “fraction of unbound DUT, presence versus absence of KET” value in data set [3] (DUT and KET 5 μM, n = 5) was “no significant differences”; in data set [4] (RLM, DUT and KET 5 μM, n = 5), “no significant differences”.
